Data as given in patent publication US11524014B2, “Pharmaceutical formulations and systems for delivery of an androgenic agent and an aromatase inhibitor with sustained multi-phasic release profiles and methods of use” (Havah Therapeutics Pty Ltd., priority 2019, dated 2022).
“And” between values parts separate entries of the source, which are not always exact repeats. Identical values can stand only once. Like-named read-outs stand apart in the source and are kept apart here.

Assays:
clinical = conditions: female, human, in vivo; for half-life: t1/2, arithmetic mean (terminal half-life)
Method: Pre-menopausal women with high Mammographic Breast Density (MBD) was selected for the study. Following the successful screening, participants came to the Wellend Clinic South Australia for dosing. The participants were to be dosed while in the luteal phase of their menstrual cycle to avoid the highly changing hormonal environment of the follicular phase. Following insertion of the implant, PK blood sampling was carried out for a duration of three months. Briefly, samples were taken repeatedly on the day of dosing, daily during the first week, weekly for the next four weeks and every second week during the last eight weeks, for a total sampling period of three months. After assessments had been completed on the last day of assessments, Day 85, the trial concluded.
The sampling schedule was revised with the addition of one blood sample (at 6 hours post-dose), and no adjustment of the timing of existing time points. The duration of sampling was not extended.
In summary, following dosing on Day 1, blood samples were taken pre-dose (within one hour of dosing) and at 1, 2, 4, 6, 8 and 12 hours. Participants returned for a blood sample to be taken at 9 am in the morning on Days 2, 3, 4, 5, 8, 15, 22, 29, 43, 57, 71 and 85.
A total of 11 subjects were dosed and included in the safety analysis set. Eleven subjects were included in the PK analysis set. Women were aged between 35 and 55 years of age, Body Mass Index (BMI) range of 20-30 kg/m^2.

[1] = oral anastrozole; cited from earlier work
[2] = Population pharmacokinetic modelling of anastrozole from the Example 1 trial; assay type: in vivo, human
Method: Data in these figures are presented as mean+/−standard deviation. […] The percentage change from baseline was calculated for the average volume and plotted against time in months. […] In FIG. 8A, the data on the X axis is plotted in time (hours) after transplantation. In FIG. 8B the X axis is on a log scale. In FIGS. 8A-B, the open circles equal observed data, the black line equals median PK profile, and the dashed dark grey line equals lower limit of quantification (0.1 ng/mL).
One and two compartment models were fitted to the data. Several absorption models were tested such as first and zero order, mixed order, as well as transit compartments. Model selection was performed on the basis of statistical criteria (objective function) as well as visual inspection of diagnostic plots. […] Between-subject variability (BSV) was included on apparent clearance (CL/F), apparent volume of distribution for the central compartment (Vc/F) and the first-order absorption rate constant (KA). A proportional error model was used to describe residual unexplained variability (RUV).

IL-6 = conditions: female breast cells treated with testosterone (Guhl, 2012); cited from earlier work
[3] = two-compartment model with dual input, T+Ai implant, n=11

CC(C)(C#N)c1cc(Cn2cncn2)cc(C(C)(C)C#N)c1 [Anastrozole, 2,2′-[5-(1H-1,2,4-triazol-1-ylmethyl)-1,3-phenylene]bis(2-methylpropanenitrile)]
concentration at 12 weeks (clinical): < 0.1 ng/mL
Tmax (clinical; sc, Tmax, median, single s.c. T+Ai implant 80 mg/4 mg, women, n=11, anastrozole in plasma, testosterone in serum): 48.6 h
Tmax (clinical; sc, median Tmax post-dose, plasma anastrozole after single s.c. T+Ai implant, range 1-3 days): 48 h
half-life (clinical; sc): 336 h
t1/2, arithmetic mean (terminal half-life) (female, human, in vivo, sc): 326 h
CL/F, arithmetic mean (NCA) (human, in vivo, sc): 1.88 L/h
half-life [1]: 48 h
Fraction absorbed via second input ([2]; fixed in the model (FIX)): 0.5 FIX
Absorbtion rate constant (ka) first input, estimated value (% RSE) [2, 3]: 0.119 (20.6) /hr
Absorbtion rate constant (ka) second input, estimated value (% RSE) [2, 3]: 0.148 (20.5) /hr
Apparent central volume of distribution (Vc/F), estimated value (% RSE) [2, 3]: 672 (3.0) L
Apparent clearance (CL/F), estimated value (% RSE) [2, 3]: 1.77 L/hr and 1.77 (6.9) L/hr
Apparent peripheral volume of distribution (Vp/F), estimated value (% RSE) [2, 3]: 106 (29.8) L
Inter-compartmental clearance (Q/F), estimated value (% RSE) [2, 3]: 0.97 (57.7) L/hr
Lagged time for second input, estimated value (% RSE) [2, 3]: 3.77 (9.7) h

C[C@]12CCC(=O)C[C@@H]1CC[C@@H]1[C@@H]2CC[C@]2(C)[C@@H](O)CC[C@@H]12 [dihydrotestosterone, 5 alpha dihydrotestosterone]
Tmax (clinical; Tmax post-dose, serum dihydrotestosterone, participants with measurable maximal values): 48 to 72 h
serum level measurability (serum dihydrotestosterone after single s.c. T+Ai implant): not measurable in most samples

C[C@]12CC[C@H]3[C@@H](CCC4=CC(=O)CC[C@@]43C)[C@@H]1CC[C@@H]2O [Testosterone, testosterone]
Tmax (clinical; sc): 8 h
Cmax (clinical; sc, Cmax, arithmetic mean, single s.c. T+Ai implant 80 mg/4 mg, women, n=11, anastrozole in plasma, testosterone in serum): 4.1 ng/mL
half-life (clinical; sc, single s.c. T+Ai implant 80 mg/4 mg, women, n=11, anastrozole in plasma, testosterone in serum): 1030 h
time of second lower serum peak (serum testosterone after single s.c. T+Ai implant): 2-3 weeks
Cmax, arithmetic mean (single s.c. T+Ai implant 80 mg/4 mg, women, n=11, anastrozole in plasma, testosterone in serum): 4.08 ng/mL
reduction of IL-6 levels (IL-6): 53%
